Laboratory results: US9682995B2, “Amino-substituted isothiazoles” (BAYER PHARMA AKTIENGESELLSCHAFT, priority 2013, dated 2017)

What was measured:
Assay in all cases: Kinase Profiling (KINOMEscan)
Type in all cases: binding
[1] = biological target: 456 kinases (of these 395 non-mutant kinases) (Homo sapiens, UniProt O14936); settings: CASK; 10 μM
[2] = biological target: 456 kinases (of these 395 non-mutant kinases) (Homo sapiens, UniProt O43353); settings: RIPK2; 10 μM
[3] = biological target: 456 kinases (of these 395 non-mutant kinases) (Homo sapiens, UniProt P00519, E255K); settings: ABL1(E255K)-phosphorylated; 10 μM
[4] = biological target: 456 kinases (of these 395 non-mutant kinases) (Homo sapiens, UniProt P00533, DEL746-750); settings: EGFR(E746-A750del); 10 μM
[5] = biological target: 456 kinases (of these 395 non-mutant kinases) (Homo sapiens, UniProt P00533, L858R); settings: EGFR(L858R); 10 μM
[6] = biological target: 456 kinases (of these 395 non-mutant kinases) (Homo sapiens, UniProt P00533, L861Q); settings: EGFR(L861Q); 10 μM
[7] = biological target: 456 kinases (of these 395 non-mutant kinases) (Homo sapiens, UniProt P08922); settings: ROS1; 10 μM
[8] = biological target: 456 kinases (of these 395 non-mutant kinases) (Homo sapiens, UniProt P10721, V559D); settings: KIT(V559D); 10 μM
[9] = biological target: 456 kinases (of these 395 non-mutant kinases) (Homo sapiens, UniProt P14616); settings: INSRR; 10 μM
[10] = biological target: 456 kinases (of these 395 non-mutant kinases) (Homo sapiens, UniProt P27037); settings: ACVR2A; 10 μM
[11] = biological target: 456 kinases (of these 395 non-mutant kinases) (Homo sapiens, UniProt P28482); settings: ERK2; 10 μM
[12] = biological target: 456 kinases (of these 395 non-mutant kinases) (Homo sapiens, UniProt P29376); settings: LTK; 10 μM
[13] = biological target: 456 kinases (of these 395 non-mutant kinases) (Homo sapiens, UniProt P36888, D835H); settings: FLT3(D835H); 10 μM
[14] = biological target: 456 kinases (of these 395 non-mutant kinases) (Homo sapiens, UniProt P53778); settings: p38-gamma; 10 μM
[15] = biological target: 456 kinases (of these 395 non-mutant kinases) (Homo sapiens, UniProt P53779); settings: JNK3; 10 μM
[16] = biological target: 456 kinases (of these 395 non-mutant kinases) (Homo sapiens, UniProt Q02156); settings: PRKCE; 10 μM
[17] = biological target: 456 kinases (of these 395 non-mutant kinases) (Homo sapiens, UniProt Q05655); settings: PRKCD; 10 μM
[18] = biological target: 456 kinases (of these 395 non-mutant kinases) (Homo sapiens, UniProt Q09013); settings: DMPK; 10 μM
[19] = biological target: 456 kinases (of these 395 non-mutant kinases) (Homo sapiens, UniProt Q13546); settings: RIPK1; 10 μM
[20] = biological target: 456 kinases (of these 395 non-mutant kinases) (Homo sapiens, UniProt Q15418); settings: 10 μM
[21] = biological target: 456 kinases (of these 395 non-mutant kinases) (Homo sapiens, UniProt Q16288); settings: TRKC; 10 μM
[22] = biological target: 456 kinases (of these 395 non-mutant kinases) (Homo sapiens, UniProt Q16566); settings: CAMK4; 10 μM
[23] = biological target: 456 kinases (of these 395 non-mutant kinases) (Homo sapiens, UniProt Q16620); settings: TRKB; 10 μM
[24] = biological target: 456 kinases (of these 395 non-mutant kinases) (Homo sapiens, UniProt Q96Q40); settings: PFTAIRE2; 10 μM
[25] = biological target: 456 kinases (of these 395 non-mutant kinases) (Homo sapiens, UniProt Q99640); settings: PKMYT1; 10 μM
[26] = biological target: 456 kinases (of these 395 non-mutant kinases) (Homo sapiens, UniProt Q9HAZ1); settings: CLK4; 10 μM
[27] = biological target: 456 kinases (of these 395 non-mutant kinases) (Homo sapiens, UniProt Q9HCP0); settings: CSNK1G1; 10 μM
[28] = biological target: 456 kinases (of these 395 non-mutant kinases) (Homo sapiens, UniProt Q9P0L2); settings: MARK1; 10 μM
[29] = biological target: 456 kinases (of these 395 non-mutant kinases) (Homo sapiens, UniProt Q9UEE5); settings: DRAK1; 10 μM
[30] = biological target: 456 kinases (of these 395 non-mutant kinases) (Homo sapiens, UniProt Q9Y2H1); settings: NDR2; 10 μM
[31] = system: 456 kinases (of these 395 non-mutant kinases); settings: 10 μM

456 kinases (of these 395 non-mutant kinases) (Homo sapiens, UniProt P08922), sequence (P08922 28-2347 limits assumed, stated change not applied): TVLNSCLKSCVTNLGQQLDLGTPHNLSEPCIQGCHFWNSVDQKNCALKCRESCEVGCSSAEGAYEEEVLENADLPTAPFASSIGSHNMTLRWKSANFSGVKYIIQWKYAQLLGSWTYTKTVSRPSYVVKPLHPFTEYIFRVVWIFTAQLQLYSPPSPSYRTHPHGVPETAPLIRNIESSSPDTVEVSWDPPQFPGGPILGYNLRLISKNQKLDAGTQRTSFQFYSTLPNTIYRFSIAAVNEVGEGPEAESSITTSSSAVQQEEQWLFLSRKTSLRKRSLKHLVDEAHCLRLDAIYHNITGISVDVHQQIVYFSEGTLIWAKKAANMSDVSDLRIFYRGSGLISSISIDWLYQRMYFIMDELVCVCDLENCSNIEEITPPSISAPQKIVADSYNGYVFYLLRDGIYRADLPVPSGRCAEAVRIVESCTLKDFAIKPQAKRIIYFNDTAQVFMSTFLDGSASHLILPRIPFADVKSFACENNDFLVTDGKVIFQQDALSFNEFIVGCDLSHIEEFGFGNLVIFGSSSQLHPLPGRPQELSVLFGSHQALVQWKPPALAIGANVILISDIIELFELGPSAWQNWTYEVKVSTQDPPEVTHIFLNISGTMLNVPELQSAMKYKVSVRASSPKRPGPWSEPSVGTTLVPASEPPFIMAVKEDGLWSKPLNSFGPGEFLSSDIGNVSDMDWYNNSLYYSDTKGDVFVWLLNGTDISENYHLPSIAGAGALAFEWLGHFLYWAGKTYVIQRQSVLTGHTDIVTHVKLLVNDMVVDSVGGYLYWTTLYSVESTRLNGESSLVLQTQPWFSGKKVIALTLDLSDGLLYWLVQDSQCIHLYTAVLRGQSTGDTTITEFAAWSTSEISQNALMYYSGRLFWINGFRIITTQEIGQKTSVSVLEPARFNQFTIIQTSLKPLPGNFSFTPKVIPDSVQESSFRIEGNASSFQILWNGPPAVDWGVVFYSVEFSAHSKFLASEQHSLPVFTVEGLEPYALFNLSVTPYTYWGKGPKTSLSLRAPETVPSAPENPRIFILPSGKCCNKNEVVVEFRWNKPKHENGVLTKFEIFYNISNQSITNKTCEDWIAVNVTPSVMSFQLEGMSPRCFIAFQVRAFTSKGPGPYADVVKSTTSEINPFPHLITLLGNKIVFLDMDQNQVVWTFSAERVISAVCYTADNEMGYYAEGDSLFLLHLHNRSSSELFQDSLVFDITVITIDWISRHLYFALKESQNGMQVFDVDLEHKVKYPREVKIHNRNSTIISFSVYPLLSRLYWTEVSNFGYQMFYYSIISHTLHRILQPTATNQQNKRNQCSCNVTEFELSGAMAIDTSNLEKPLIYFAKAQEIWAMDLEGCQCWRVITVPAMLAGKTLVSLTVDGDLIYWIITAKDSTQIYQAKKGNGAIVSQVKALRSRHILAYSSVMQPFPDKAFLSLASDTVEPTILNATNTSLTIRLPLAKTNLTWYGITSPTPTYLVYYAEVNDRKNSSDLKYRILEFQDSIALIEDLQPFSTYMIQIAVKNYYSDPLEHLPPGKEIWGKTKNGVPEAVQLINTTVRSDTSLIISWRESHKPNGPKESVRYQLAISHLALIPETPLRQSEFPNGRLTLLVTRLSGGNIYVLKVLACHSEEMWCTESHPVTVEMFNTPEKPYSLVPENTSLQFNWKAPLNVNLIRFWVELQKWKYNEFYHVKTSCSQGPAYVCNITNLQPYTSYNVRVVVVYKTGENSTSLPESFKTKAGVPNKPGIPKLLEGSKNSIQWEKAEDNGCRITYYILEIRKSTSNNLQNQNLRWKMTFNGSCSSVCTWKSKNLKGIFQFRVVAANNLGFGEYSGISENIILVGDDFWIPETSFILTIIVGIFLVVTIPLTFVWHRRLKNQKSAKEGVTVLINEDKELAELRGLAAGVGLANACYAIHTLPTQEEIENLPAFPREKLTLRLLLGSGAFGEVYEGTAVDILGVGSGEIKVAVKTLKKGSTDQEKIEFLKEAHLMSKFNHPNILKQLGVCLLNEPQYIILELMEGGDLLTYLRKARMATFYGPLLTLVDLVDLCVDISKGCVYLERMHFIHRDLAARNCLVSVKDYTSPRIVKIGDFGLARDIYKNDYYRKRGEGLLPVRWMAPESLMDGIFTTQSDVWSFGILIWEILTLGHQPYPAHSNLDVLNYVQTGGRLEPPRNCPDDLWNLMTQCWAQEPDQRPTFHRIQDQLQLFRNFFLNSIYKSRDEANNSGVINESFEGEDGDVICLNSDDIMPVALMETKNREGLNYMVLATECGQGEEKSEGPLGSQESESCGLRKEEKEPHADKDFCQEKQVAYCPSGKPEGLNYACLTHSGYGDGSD
456 kinases (of these 395 non-mutant kinases) (Homo sapiens, UniProt Q16288), sequence (Q16288 32-839 limits assumed, change not shown): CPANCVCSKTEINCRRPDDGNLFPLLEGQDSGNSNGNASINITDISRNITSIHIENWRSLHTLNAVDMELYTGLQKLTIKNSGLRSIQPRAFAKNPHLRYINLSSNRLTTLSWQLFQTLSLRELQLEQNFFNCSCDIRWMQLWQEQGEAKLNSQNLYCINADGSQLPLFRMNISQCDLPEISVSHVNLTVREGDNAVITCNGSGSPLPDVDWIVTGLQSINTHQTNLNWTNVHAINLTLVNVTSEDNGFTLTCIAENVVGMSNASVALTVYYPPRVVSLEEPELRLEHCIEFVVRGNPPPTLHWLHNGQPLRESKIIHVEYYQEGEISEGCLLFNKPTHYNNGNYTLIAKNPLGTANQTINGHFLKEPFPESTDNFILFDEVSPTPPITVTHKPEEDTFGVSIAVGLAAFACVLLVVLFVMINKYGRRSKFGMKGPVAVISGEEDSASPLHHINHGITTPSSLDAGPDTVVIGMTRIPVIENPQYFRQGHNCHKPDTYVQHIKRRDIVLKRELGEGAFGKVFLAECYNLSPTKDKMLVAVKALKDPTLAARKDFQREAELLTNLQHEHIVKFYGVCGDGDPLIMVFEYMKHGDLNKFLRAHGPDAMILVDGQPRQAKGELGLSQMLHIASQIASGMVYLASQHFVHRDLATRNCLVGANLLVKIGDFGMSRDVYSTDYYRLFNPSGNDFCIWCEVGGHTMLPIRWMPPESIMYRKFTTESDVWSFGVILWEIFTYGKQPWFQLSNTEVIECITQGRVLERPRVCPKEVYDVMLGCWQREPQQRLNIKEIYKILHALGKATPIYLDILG
456 kinases (of these 395 non-mutant kinases) (Homo sapiens, UniProt P28482), sequence (P28482 2-360 limits assumed, change not shown): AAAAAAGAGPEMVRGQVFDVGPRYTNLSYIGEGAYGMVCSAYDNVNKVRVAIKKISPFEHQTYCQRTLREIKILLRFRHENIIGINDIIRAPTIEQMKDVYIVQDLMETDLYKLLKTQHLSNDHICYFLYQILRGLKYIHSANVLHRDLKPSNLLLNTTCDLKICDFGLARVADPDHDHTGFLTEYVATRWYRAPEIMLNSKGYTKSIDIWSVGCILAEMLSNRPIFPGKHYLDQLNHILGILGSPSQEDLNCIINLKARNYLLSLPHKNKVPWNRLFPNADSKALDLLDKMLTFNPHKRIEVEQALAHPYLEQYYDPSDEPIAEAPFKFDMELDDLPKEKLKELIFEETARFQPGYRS
456 kinases (of these 395 non-mutant kinases) (Homo sapiens, UniProt P10721, V559D), sequence (P10721 26-976 V559D limits assumed): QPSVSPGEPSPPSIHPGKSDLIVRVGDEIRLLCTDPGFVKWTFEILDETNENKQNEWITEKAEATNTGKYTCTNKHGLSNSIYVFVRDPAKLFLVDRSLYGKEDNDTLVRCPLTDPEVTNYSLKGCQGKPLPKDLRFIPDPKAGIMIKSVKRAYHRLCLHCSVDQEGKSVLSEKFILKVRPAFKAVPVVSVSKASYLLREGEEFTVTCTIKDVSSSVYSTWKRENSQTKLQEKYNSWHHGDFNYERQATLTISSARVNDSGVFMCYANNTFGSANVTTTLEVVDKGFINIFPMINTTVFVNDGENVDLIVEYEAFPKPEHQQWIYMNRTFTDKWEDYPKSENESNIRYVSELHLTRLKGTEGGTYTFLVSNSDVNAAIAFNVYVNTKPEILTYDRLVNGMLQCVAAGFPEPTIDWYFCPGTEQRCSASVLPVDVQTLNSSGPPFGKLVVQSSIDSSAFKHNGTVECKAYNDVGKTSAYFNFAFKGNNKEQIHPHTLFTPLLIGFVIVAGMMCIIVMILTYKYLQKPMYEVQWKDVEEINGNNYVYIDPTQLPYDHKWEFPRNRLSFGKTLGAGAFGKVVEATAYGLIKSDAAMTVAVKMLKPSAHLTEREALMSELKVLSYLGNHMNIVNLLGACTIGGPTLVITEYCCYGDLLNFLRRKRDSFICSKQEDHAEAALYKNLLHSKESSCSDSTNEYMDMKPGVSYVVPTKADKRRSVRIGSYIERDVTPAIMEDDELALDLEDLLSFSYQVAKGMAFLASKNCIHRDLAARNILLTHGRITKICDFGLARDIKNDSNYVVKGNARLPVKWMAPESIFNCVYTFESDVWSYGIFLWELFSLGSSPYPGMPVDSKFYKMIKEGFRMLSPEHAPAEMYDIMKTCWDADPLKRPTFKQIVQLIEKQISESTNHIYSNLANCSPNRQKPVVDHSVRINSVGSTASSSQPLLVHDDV
456 kinases (of these 395 non-mutant kinases) (Homo sapiens, UniProt Q9Y2H1), sequence (Q9Y2H1 2-464 limits assumed, change not shown): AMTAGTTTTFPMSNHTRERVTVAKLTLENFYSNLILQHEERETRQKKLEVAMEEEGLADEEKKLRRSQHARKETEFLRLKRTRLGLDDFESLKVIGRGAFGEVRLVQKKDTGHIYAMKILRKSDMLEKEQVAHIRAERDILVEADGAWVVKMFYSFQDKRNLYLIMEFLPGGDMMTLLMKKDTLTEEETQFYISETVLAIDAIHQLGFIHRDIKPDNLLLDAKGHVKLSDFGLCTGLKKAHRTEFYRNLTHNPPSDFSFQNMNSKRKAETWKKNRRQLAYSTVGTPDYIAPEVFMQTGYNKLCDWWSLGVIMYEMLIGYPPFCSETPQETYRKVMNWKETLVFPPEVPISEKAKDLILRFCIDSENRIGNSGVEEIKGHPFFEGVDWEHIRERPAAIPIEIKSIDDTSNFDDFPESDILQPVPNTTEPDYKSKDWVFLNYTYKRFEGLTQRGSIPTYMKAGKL

Question: Which results are given for `CCc1ccccc1NC(=O)c1c(C)nsc1Nc1cnc2cc(F)ccc2n1` [Example 20, N-(2-Ethylphenyl)-5-[(6-fluoroquinoxalin-2-yl)amino]-3-methyl-1,2-thiazole-4-carboxamide]?
Answer: % Ctrl @ 10 μM [1]: 87 % Ctrl; % Ctrl @ 10 μM [2]: 66 % Ctrl; % Ctrl @ 10 μM [3]: 100 % Ctrl; % Ctrl @ 10 μM [4]: 100 % Ctrl; % Ctrl @ 10 μM [5]: 96 % Ctrl; % Ctrl @ 10 μM [6]: 100 % Ctrl; % Ctrl @ 10 μM [7]: 89 % Ctrl; % Ctrl @ 10 μM [8]: 61 % Ctrl; % Ctrl @ 10 μM [9]: 76 % Ctrl; % Ctrl @ 10 μM [10]: 94 % Ctrl; % Ctrl @ 10 μM [11]: 96 % Ctrl; % Ctrl @ 10 μM [12]: 68 % Ctrl; % Ctrl @ 10 μM [13]: 83 % Ctrl; % Ctrl @ 10 μM [14]: 58 % Ctrl; % Ctrl @ 10 μM [15]: 100 % Ctrl; % Ctrl @ 10 μM [16]: 75 % Ctrl; % Ctrl @ 10 μM [17]: 85 % Ctrl; % Ctrl @ 10 μM [18]: 84 % Ctrl; % Ctrl @ 10 μM [19]: 99 % Ctrl; % Ctrl @ 10 μM ([20]; RSK1(Kin.Dom.1-N-terminal)): 95 % Ctrl; % Ctrl @ 10 μM ([20]; RSK1(Kin.Dom.2-C-terminal)): 86 % Ctrl; % Ctrl @ 10 μM [21]: 93 % Ctrl; % Ctrl @ 10 μM [22]: 100 % Ctrl; % Ctrl @ 10 μM [23]: 90 % Ctrl; % Ctrl @ 10 μM [24]: 84 % Ctrl; % Ctrl @ 10 μM [25]: 100 % Ctrl; % Ctrl @ 10 μM [26]: 100 % Ctrl; % Ctrl @ 10 μM [27]: 90 % Ctrl; % Ctrl @ 10 μM [28]: 97 % Ctrl; % Ctrl @ 10 μM [29]: 100 % Ctrl; % Ctrl @ 10 μM [30]: 75 % Ctrl; % Ctrl @ 10 μM ([31]; EGFR(L747-E749del, A750P)): 94 % Ctrl; % Ctrl @ 10 μM ([31]; EGFR(L747-S752del, P753S)): 100 % Ctrl; % Ctrl @ 10 μM ([31]; EGFR(L747-T751del,Sins)): 100 % Ctrl; % Ctrl @ 10 μM ([31]; FLT3(ITD)): 67 % Ctrl
